Data as given in PMC9861858, “Stereoselective Synthesis and Antiproliferative Activities of Tetrafunctional Diterpene Steviol Derivatives” (International Journal of Molecular Sciences, 2023).
“Also recorded” adds a separate entry of the source.

Assays:
A2780 cells = assay: MTT antiproliferative assay, A2780; assay type: cell-based, human; settings: for inhibition at 10 µM / inhibition at 30 µM: Homo sapiens, 72 h, values <20% considered negligible, read-out: Growth inhibition (%) ± SEM, A2780; for inhibition at 10 µM: A2780, 10 μM; for inhibition at 30 µM: A2780, 30 μM
How it was run: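 Antiproliferative effect is expressed as growth inhibition from an MTT assay after cancer cells were incubated 72 h with either 10 μM or 30 μM compound.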

[1] = system: human cancer cell lines (HeLa, SiHa, A2780, MCF-7 and MDA-MB-231); assay: MTT antiproliferative assay, whole cancer cell panel; assay type: cell-based; settings: 10 and 30 μM
Experimental: The in vitro antiproliferative activities of the synthesised aminotriols 5–18 against a panel of different human cancer cell lines of gynecological origin, including cervical (SiHA and HeLa), breast (MCF7 and MDA-MB-231), ovary (A2780) cancers and NIH/3T3 healthy fibroblasts, were assayed by the MTT method. Cisplatin, a clinically applied anticancer agent was used as a reference compound, and the results are summarised in Figure 3 and Table S1 in the Supplementary Materials.
The growth-inhibitory effects of the presented terpenes were determined by a standard MTT [3-(4,5-dimethylthiazol2-yl)-2,5-diphenyltetrazolium bromide] assay against […] human cancer cell lines (cervical cancer HeLa and SiHa cell lines, breast cancer MCF-7 and MDA-MB-231 and ovarian cancer A2780). Murine embryonal fibroblast cells (NIH/3T3) were used to determine selectivity. All cell lines were purchased from the European Collection of Cell Cultures (Salisbury, UK). The cells were cultivated in Eagle’s minimal essential medium supplemented with 10% fetal bovine serum, 1% non-essential amino acids, and 1% Antibiotic-Antimycotic complex (penicillin, streptomycin, amphotericin B) at 37 °C in a humidified atmosphere containing 5% CO2. All media and supplements were purchased from Lonza Group Ltd. (Basel, Switzerland). Cancer cells were seeded into 96-well plates (5000 cells/well) after an overnight incubation, and the test compounds were added at two different concentrations (10 μM and 30 μM) and incubated for another 72 h under cell-culturing conditions. Finally, 20 μL of a 5 mg/mL MTT solution was added to each well, and the contents were incubated for a further 4 h. The medium was removed, and the precipitated formazan crystals were dissolved in DMSO by shaking at 37 °C for 60 min. The absorbance was measured at 545 nm by using a microplate reader (SPECTROStar Nano, BMG Labtech, Offenburg, Germany). Clinically utilised anticancer agent cisplatin (Ebewe GmbH, Unterach, Austria) was included as a reference molecule. Calculations were performed using the GraphPad Prism 9 software (GraphPad Software Inc., San Diego, CA, USA).

| Compound | melting point [°C] | inhibition at 10 µM (A2780 cells) [%] | inhibition at 30 µM (A2780 cells) [%] | Antiproliferative effect on A2780, in words (A2780 cells; 10 and 30 μM) | Antiproliferative activity on the cancer cell panel, in words [1] |
| --- | --- | --- | --- | --- | --- |
| CC[C@H](NC[C@@]1(O)[C@H](O)[C@@]23CCC4[C@@](C)(CCC[C@@]4(C)C(=O)OC)C2CC[C@]1(O)C3)c1ccccc1 (stereo partly drawn) [Compound 16, (4R,6aR,7R,8R,9S,11bS)-Methyl 7,8,9-Trihydroxy-4,11b-dimethyl-8-((((S)-1-phenylpropyl)amino)methyl)tetradecahydro-6a,9-methanocyclohepta[a]naphthalene-4-carboxylate] | 140 to 143 | 48.3 ± 2.17 | 96.99 ± 0.19 | – | – |
| CC[C@@H](NC[C@@]1(O)[C@H](O)[C@@]23CCC4[C@@](C)(CCC[C@@]4(C)C(=O)OC)C2CC[C@]1(O)C3)c1ccccc1 (stereo partly drawn) [Compound 15, (4R,6aR,7R,8R,9S,11bS)-Methyl 7,8,9-Trihydroxy-4,11b-dimethyl-8-((((R)-1-phenylpropyl)amino)methyl)tetradecahydro-6a,9-methanocyclohepta[a]naphthalene-4-carboxylate] | 138 to 141 | 50 ± 2.99 | 96.64 ± 0.24 | modest inhibition | – |
| COC(=O)[C@]1(C)CCC[C@@]2(C)C3CC[C@]4(O)C[C@@]3(CCC21)[C@@H](O)[C@]4(O)CNCc1ccc(F)cc1 (stereo partly drawn) [Compound 9, (4R,6aR,7R,8R,9S,11bS)-Methyl 8-(((4-Fluorobenzyl)amino)methyl)-7,8,9-trihydroxy-4,11b-dimethyltetradecahydro-6a,9-methanocyclohepta[a]naphthalene-4-carboxylate] | 195 to 197 | 45.6 ± 3.13 | 96.97 ± 0.29 | – | – |
| COC(=O)[C@]1(C)CCC[C@@]2(C)C3CC[C@]4(O)C[C@@]3(CCC21)[C@@H](O)[C@]4(O)CNCc1ccccc1 (stereo partly drawn) [Compound 5, (4R,6aR,7R,8R,9S,11bS)-Methyl 8-((Benzylamino)methyl)-7,8,9-trihydroxy-4,11b-dimethyltetradecahydro-6a,9-methanocyclohepta[a]naphthalene-4-carboxylate] | 119 to 122 | 30.4 ± 2.48 | 97.15 ± 0.21 | – | significant activity in higher concentrations only |
| COC(=O)[C@]1(C)CCC[C@@]2(C)C3CC[C@]4(O)C[C@@]3(CCC21)[C@@H](O)[C@]4(O)CN(C)Cc1ccccc1 (stereo partly drawn) [Compound 6, (4R,6aR,7R,8R,9S,11bS)-Methyl 8-((Benzyl(methyl)amino)methyl)-7,8,9-trihydroxy-4,11b-dimethyltetradecahydro-6a,9-methanocyclohepta[a]naphthalene-4-carboxylate] | 162 to 166 | 25.7 ± 2.7 | 63.7 ± 1.98 | – | lower bioactivity; also recorded: significant activity in higher concentrations only |
